Here are results for 8 molecules from PMC13064811, “The Role of Disulfide Bonds in the GluN1 Subunit in the Early Trafficking and Functional Properties of GluN1/GluN2 and GluN1/GluN3 NMDA Receptors” (The Journal of Neuroscience, 2026).

Each structure is given as a SMILES string. Where two headings read alike, the source gives them in different places.

Experiment [1] concerns the target T1, hGluN1-4a/hGluN2B (Homo sapiens, UniProt Q05586+Q13224).
T1 construct: GluN1-4a (hGluN1-4a; NP_000823.4); GluN2B (hGluN2B; NP_000825.2); expressed in transfected cells; host or cells: HEK293T
The experiment is classed as cell-based. As to conditions: pretreatment with 4 mM DTT or 0.5 mM DTNB, each for 2 min.

A further experiment concerns the target T2, hGluN1-4a-C744Y/hGluN2A (Homo sapiens, UniProt Q05586+Q12879, C744Y).
T2 construct: GluN1-4a (hGluN1-4a; NP_000823.4); GluN2A (hGluN2A; NP_001127879.1); expressed in transfected cells; host or cells: HEK293T
It is filed as cell-based. As to conditions: for effect on peak current amplitudes (redox sensitivity): pretreatment with 4 mM DTT or 0.5 mM DTNB, each for 2 min.

The next experiment has as its target T3, hGluN1-4a-C744Y/hGluN2B (Homo sapiens, UniProt Q05586+Q13224, C744Y).
T3 construct: GluN1-4a (hGluN1-4a; NP_000823.4); GluN2B (hGluN2B; NP_000825.2); expressed in transfected cells; host or cells: HEK293T
The experiment is classed as cell-based.

Another experiment has as its target T4, hGluN1-4a/hGluN2A (Homo sapiens, UniProt Q05586+Q12879).
T4 construct: GluN1-4a (hGluN1-4a; NP_000823.4); GluN2A (hGluN2A; NP_001127879.1); expressed in transfected cells; host or cells: HEK293T
It is filed as cell-based. As to conditions: for effect on peak current amplitudes (redox sensitivity): pretreatment with 4 mM DTT or 0.5 mM DTNB, each for 2 min.

The test system of a further experiment is GluN1-C436S/GluN2B. As to conditions: cited from earlier work.
Experiment [2] concerns the target YFP-hGluN1-1a-C744Y/hGluN2B (Homo sapiens, UniProt Q05586+Q13224, C744Y). It is filed as cell-based.
The target in another experiment is YFP-hGluN1-1a/hGluN2B (Homo sapiens, UniProt Q05586+Q13224). It is filed as cell-based.
A further experiment concerns GluN1-C454S/GluN2B. Particulars: cited from earlier work.
The next experiment relates to GluN1-C455S/GluN2B. Particulars: cited from earlier work.
The target of another experiment is YFP-hGluN1-1a/hGluN2A (Homo sapiens, UniProt Q05586+Q12879). The experiment is classed as cell-based.
Experiment [3] deals with GluN1-C744Y/GluN2A receptors. As to conditions: cited from earlier work.
In experiment [4] the target is YFP-hGluN1-1a-C744Y/hGluN2A (Homo sapiens, UniProt Q05586+Q12879, C744Y). The experiment is classed as cell-based.
Experiment [5] deals with GluN1-C79S-C308S/GluN2A receptors. Particulars: cited from earlier work.
Experiment [6] concerns YFP-hGluN1/hGluN2A receptors. It is filed as cell-based, rat.
Experiment [7] concerns YFP-hGluN1/hGluN2B receptors. It is filed as cell-based, rat.
The test system of experiment [8] is YFP-GluN1-1a-C744S-C798S/GluN3A.
Experiment [9] relates to YFP-hGluN1-1a-C744Y/hGluN3A.
The test system of experiment [10] is hippocampal neurons expressing YFP-hGluN1-1a or YFP-hGluN1-1a-C744Y subunits. The experiment is described as follows: NMDA-induced excitotoxicity assay. As to conditions: 10 µM memantine; death induced by 30 µM NMDA and 10 µM glycine. The experiment is classed as cell-based, rat.
For experiment [11], the target named is T1, hGluN1-4a/hGluN2B. Also on record: method as in Konecny et al., 2024. Particulars: ref Konecny et al., 2024, cited from earlier work.
[12] abbreviates: read-out: EC50 value for glycine.
The mark [13] stands for this setting: 1 mM L-glutamate and 100 µM glycine, −60 mV.
[14] abbreviates: offset of inhibition, 1 mM glutamate and 100 µM glycine.
Where [15] appears, read: onset of inhibition, 1 mM glutamate and 100 µM glycine.

T1 sequence (Q13224 27-1484, other chains not shown): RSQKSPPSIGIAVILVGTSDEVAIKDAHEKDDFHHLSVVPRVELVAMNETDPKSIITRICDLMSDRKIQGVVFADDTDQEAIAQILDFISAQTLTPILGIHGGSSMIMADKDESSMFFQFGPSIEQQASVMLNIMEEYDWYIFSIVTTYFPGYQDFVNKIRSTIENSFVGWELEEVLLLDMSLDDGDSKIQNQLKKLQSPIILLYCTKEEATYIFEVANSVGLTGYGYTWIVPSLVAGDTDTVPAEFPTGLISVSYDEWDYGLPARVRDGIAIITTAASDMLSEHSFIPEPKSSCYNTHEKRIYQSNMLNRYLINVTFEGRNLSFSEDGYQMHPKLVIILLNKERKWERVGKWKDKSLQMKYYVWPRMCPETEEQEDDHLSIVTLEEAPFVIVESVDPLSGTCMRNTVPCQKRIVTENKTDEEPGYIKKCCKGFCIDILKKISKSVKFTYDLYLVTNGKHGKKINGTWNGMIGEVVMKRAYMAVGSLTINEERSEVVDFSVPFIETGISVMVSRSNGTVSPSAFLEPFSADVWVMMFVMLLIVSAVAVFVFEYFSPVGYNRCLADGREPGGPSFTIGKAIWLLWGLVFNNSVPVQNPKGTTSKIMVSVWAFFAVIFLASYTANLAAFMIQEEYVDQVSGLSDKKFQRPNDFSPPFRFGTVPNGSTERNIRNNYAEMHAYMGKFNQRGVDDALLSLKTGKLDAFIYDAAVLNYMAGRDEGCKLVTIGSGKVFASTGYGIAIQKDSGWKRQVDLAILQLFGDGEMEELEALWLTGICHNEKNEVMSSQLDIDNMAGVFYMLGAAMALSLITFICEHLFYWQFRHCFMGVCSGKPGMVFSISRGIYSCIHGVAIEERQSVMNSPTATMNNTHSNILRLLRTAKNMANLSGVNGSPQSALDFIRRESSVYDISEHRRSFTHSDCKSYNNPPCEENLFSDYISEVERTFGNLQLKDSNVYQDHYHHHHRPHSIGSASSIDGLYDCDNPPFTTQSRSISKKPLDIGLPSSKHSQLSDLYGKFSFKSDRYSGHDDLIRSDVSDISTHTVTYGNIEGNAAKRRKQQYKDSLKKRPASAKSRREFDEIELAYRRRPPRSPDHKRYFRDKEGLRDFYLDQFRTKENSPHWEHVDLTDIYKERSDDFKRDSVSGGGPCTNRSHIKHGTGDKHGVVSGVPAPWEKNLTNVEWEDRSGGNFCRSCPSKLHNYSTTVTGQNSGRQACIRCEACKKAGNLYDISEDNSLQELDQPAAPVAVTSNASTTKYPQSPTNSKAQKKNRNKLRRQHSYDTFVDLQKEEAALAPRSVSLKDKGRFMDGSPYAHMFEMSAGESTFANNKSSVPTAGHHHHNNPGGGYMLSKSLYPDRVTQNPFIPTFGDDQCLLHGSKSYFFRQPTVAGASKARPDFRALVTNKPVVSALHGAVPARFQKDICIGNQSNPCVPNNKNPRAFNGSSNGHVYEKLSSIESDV
T3 sequence (Q13224 27-1484, other chains not shown): as above
YFP-hGluN1-1a-C744Y/hGluN2B, sequence (Q13224 27-1484, other chains not shown): as above

Regarding `O[C@@H](CS)[C@@H](O)CS` (racemic) [DTT, dithiothreitol], the “effect on peak current amplitudes (redox sensitivity)” value on hGluN1-4a/hGluN2B [1] was “reduced the peak current amplitudes”; on hGluN1-4a-C744Y/hGluN2A, “neither condition (DTT or DTNB) altered the peak current amplitudes”; at hGluN1-4a-C744Y/hGluN2B (pretreatment with 4 mM DTT, 2 min) it was “did not affect”; on hGluN1-4a/hGluN2A, “neither condition (DTT or DTNB) altered the peak current amplitudes”.
With `O=C(O)c1cc(SSc2ccc([N+](=O)[O-])c(C(=O)O)c2)ccc1[N+](=O)[O-]` [DTNB, 5,5′-dithiobis-(2-nitrobenzoic acid)], the “effect on peak current amplitudes (redox sensitivity)” value on hGluN1-4a-C744Y/hGluN2A and at hGluN1-4a/hGluN2A was “neither condition (DTT or DTNB) altered the peak current amplitudes” throughout.
The EC50 is the concentration needed to bring the measured effect to its halfway point. `N[C@@H](CCC(=O)O)C(=O)O` [L-glutamate]: the EC50 was 3000 nM in the experiment with GluN1-C436S/GluN2B (read-out: EC50 L-glutamate), 1700 nM with GluN1-C454S/GluN2B (read-out: EC50 L-glutamate), 3000 nM in the experiment on GluN1-C455S/GluN2B (read-out: EC50 L-glutamate) and 1100 nM in experiment [3] (read-out: EC50 value for L-glutamate). Also, the “L-glutamate h (Hill coefficient)” value in [2] (YFP-hGluN1-1a-C744Y/hGluN2B, −60 mV) is reported as 0.89 ± 0.05; at YFP-hGluN1-1a/hGluN2B (YFP-hGluN1-1a/hGluN2B, −60 mV) it was 1.06 ± 0.06; at YFP-hGluN1-1a/hGluN2A (YFP-hGluN1-1a/hGluN2A, −60 mV), 1.36 ± 0.10; in experiment [4] (YFP-hGluN1-1a-C744Y/hGluN2A, −60 mV) it was 1.33 ± 0.09.
Regarding `CN[C@H](CC(=O)O)C(=O)O` [NMDA], in experiment [5], the “increase of the EC50 value for NMDA” value was roughly 25%.
Consider `NC1=N[C@H](O)[C@H]2[C@H]3O[C@]4(O)O[C@@H]([C@@H](O)[C@@]2(N1)[C@@H]4O)[C@]3(O)CO` [TTX, tetrodotoxin], for which, in [6], the relative surface expression result is “no alterations in the relative surface expression levels”.
`CN1CCc2cc3c(cc2[C@H]1[C@@H]1OC(=O)c2c1ccc1c2OCO1)OCO3` [bicuculline]: the relative surface expression result is listed as “increased relative surface expression” in [7] and “no alterations in the relative surface expression levels” in [6].
Turning to `NCC(=O)O` [glycine], the EC50 in the experiment with GluN1-C436S/GluN2B (read-out: EC50 glycine) is 720 nM; in experiment [5] (setting [12]), 2620 nM; in experiment [2] (read-out: Glycine EC50), 590 ± 80 nM; in the experiment on GluN1-C454S/GluN2B (read-out: EC50 glycine) it was 730 nM; in experiment [8] (read-out: Glycine EC50) it was 213000 ± 30800 nM; in the experiment on GluN1-C455S/GluN2B (read-out: EC50 glycine) it was 250 nM. Moreover, the EC50 was 2910 ± 290 nM at YFP-hGluN1-1a/hGluN2A (read-out: Glycine EC50); 52300 ± 13000 nM in the experiment on YFP-GluN1-1a/GluN3A (read-out: Glycine EC50); 368000 ± 51000 nM in experiment [9] (read-out: Glycine EC50); 700 nM in [3] (setting [12]); 70500 ± 10700 nM in the experiment on YFP-hGluN1-1a/hGluN3A (read-out: Glycine EC50); 3010 ± 410 nM in experiment [4] (read-out: Glycine EC50). Further, the “Glycine h (Hill coefficient)” value in experiment [2] worked out at 0.80 ± 0.03; at YFP-hGluN1-1a/hGluN2B, 0.83 ± 0.06; on YFP-hGluN1-1a/hGluN2A, 1.46 ± 0.07; in [9] it was 0.75 ± 0.03; in the experiment with YFP-hGluN1-1a/hGluN3A it was 0.61 ± 0.02; in experiment [4] it was 1.47 ± 0.08. The “h (Hill coefficient), glycine” value in [8] was found to be 0.88 ± 0.09; with YFP-GluN1-1a/GluN3A, 1.26 ± 0.15.
On to `CC12CC3CC(C)(C1)CC(N)(C3)C2` [memantine], for which the neuronal death entry in experiment [10] was “reduced neuronal death”. Besides, the “h (Hill coefficient), memantine” value at hGluN1-4a-C744Y/hGluN2A (setting [13]) is reported as 0.94 ± 0.06; on hGluN1-4a-C744Y/hGluN2B (setting [13]), 0.86 ± 0.05; at hGluN1-4a/hGluN2A (setting [13]) it was 1.04 ± 0.06; at hGluN1-4a/hGluN2B [11] (setting [13]), 1.04 ± 0.03. The “τoff 1 μM memantine” value is 458.37 ± 83.04 ms at hGluN1-4a-C744Y/hGluN2A (setting [14]), 811.87 ± 56.87 ms on hGluN1-4a-C744Y/hGluN2B (setting [14]), 510.08 ± 40.38 ms at hGluN1-4a/hGluN2A (setting [14]) and 758.93 ± 49.66 ms on hGluN1-4a/hGluN2B [11] (setting [14]). In addition, the “τon 1 μM memantine” value is 292.14 ± 24.73 ms on hGluN1-4a-C744Y/hGluN2A (setting [15]), 519.40 ± 26.19 ms at hGluN1-4a-C744Y/hGluN2B (setting [15]), 440.47 ± 39.77 ms on hGluN1-4a/hGluN2A (setting [15]) and 708.99 ± 49.40 ms on hGluN1-4a/hGluN2B [11] (setting [15]).
